# Assay results published in ChEMBL document CHEMBL5620381, “Design, synthesis and antitubercular activity of novel N-(amino)piperazinyl benzothiazinones with improved safety” (Eur J Med Chem, 2023).
# What was measured:
# [1] = tested on: Mycobacterium tuberculosis; assay: Antitubercular activity against multidrug resistant Mycobacterium tuberculosis 16995 incubated for 8 days by MABA; type: functional; conditions: Mycobacterium tuberculosis, 16995, 192 h; time 8 day
# [2] = tested on: Mycobacterium tuberculosis; assay: Antitubercular activity against multidrug resistant Mycobacterium tuberculosis 16883 incubated for 8 days by MABA; type: functional; conditions: Mycobacterium tuberculosis, 16883, 192 h; time 8 day
Structure (SMILES),MIC [1],MIC [2]
O=c1nc(N2CCN(NC3CCCCC3)CC2)sc2c([N+](=O)[O-])cc(C(F)(F)F)cc12,< 1 ng/mL,< 1 ng/mL
CON=C1CCC(N(C)N2CCN(c3nc(=O)c4cc(C(F)(F)F)cc([N+](=O)[O-])c4s3)CC2)CC1 (stereo not drawn),< 1 ng/mL,< 1 ng/mL
O=c1nc(N2CCN(NC3CCCCCCC3)CC2)sc2c([N+](=O)[O-])cc(C(F)(F)F)cc12,< 1 ng/mL,< 1 ng/mL
CN(C1CCC(C)(C)CC1)N1CCN(c2nc(=O)c3cc(C(F)(F)F)cc([N+](=O)[O-])c3s2)CC1,< 1 ng/mL,< 1 ng/mL
CN(C1C2CC3CC(C2)CC1C3)N1CCN(c2nc(=O)c3cc(C(F)(F)F)cc([N+](=O)[O-])c3s2)CC1 (stereo not drawn),1.5 ng/mL,< 1 ng/mL
CC1CC(N(C)N2CCN(c3nc(=O)c4cc(C(F)(F)F)cc([N+](=O)[O-])c4s3)CC2)CC(C)(C)C1 (stereo not drawn),< 1 ng/mL,< 1 ng/mL
CON=C1CCC(N(C)N2CCN(c3nc(=O)c4cc(C(F)(F)F)cc([N+](=O)[O-])c4s3)CC2(C)C)CC1 (stereo not drawn),15.7 ng/mL,125 ng/mL
CN(C1CCC2(CCCCC2)CC1)N1CCN(c2nc(=O)c3cc(C(F)(F)F)cc([N+](=O)[O-])c3s2)CC1,< 1 ng/mL,< 1 ng/mL
CC1CCC(C)C(N(C)N2CCN(c3nc(=O)c4cc(C(F)(F)F)cc([N+](=O)[O-])c4s3)CC2)C1 (stereo not drawn),< 1 ng/mL,< 1 ng/mL
CN(C1CCCCC1)N1CCN(c2nc(=O)c3cc(C(F)(F)F)cc([N+](=O)[O-])c3s2)CC1,< 1 ng/mL,< 1 ng/mL
CN(C1CCC(C)(C)CC1)N1CCN(c2nc(=O)c3cc(C(F)(F)F)cc([N+](=O)[O-])c3s2)CC1(C)C,< 1 ng/mL,< 1 ng/mL
CN(C1CCCCC1)N1CCN(c2nc(=O)c3cc(C(F)(F)F)cc([N+](=O)[O-])c3s2)CC1(C)C,< 1 ng/mL,< 1 ng/mL
CC1CCC(N(C)N2CCN(c3nc(=O)c4cc(C(F)(F)F)cc([N+](=O)[O-])c4s3)CC2)CC1 (stereo not drawn),< 1 ng/mL,< 1 ng/mL
CN(C1CCCCCCC1)N1CCN(c2nc(=O)c3cc(C(F)(F)F)cc([N+](=O)[O-])c3s2)CC1,< 1 ng/mL,< 1 ng/mL
CC1(C)CCC(NN2CCN(c3nc(=O)c4cc(C(F)(F)F)cc([N+](=O)[O-])c4s3)CC2)CC1,< 1 ng/mL,< 1 ng/mL
CN(C1CCC(=NOC(C)(C)C)CC1)N1CCN(c2nc(=O)c3cc(C(F)(F)F)cc([N+](=O)[O-])c3s2)CC1 (stereo not drawn),12.8 ng/mL,5.25 ng/mL
O=c1nc(N2CCN(NC3CCC(F)(F)CC3)CC2)sc2c([N+](=O)[O-])cc(C(F)(F)F)cc12,4 ng/mL,3.15 ng/mL
CC1CCCCC1NN1CCN(c2nc(=O)c3cc(C(F)(F)F)cc([N+](=O)[O-])c3s2)CC1 (stereo not drawn),< 1 ng/mL,< 1 ng/mL
CON=C1CCC(N(C)N2CCN(c3nc(=O)c4cc(C(F)(F)F)cc([N+](=O)[O-])c4s3)CC2C)CC1 (stereo not drawn),14.9 ng/mL,6.65 ng/mL
CN(C1CCC(F)(F)CC1)N1CCN(c2nc(=O)c3cc(C(F)(F)F)cc([N+](=O)[O-])c3s2)CC1,< 1 ng/mL,< 1 ng/mL
CCON=C1CCC(N(C)N2CCN(c3nc(=O)c4cc(C(F)(F)F)cc([N+](=O)[O-])c4s3)CC2)CC1 (stereo not drawn),11.2 ng/mL,11.4 ng/mL
CC1CN(c2nc(=O)c3cc(C(F)(F)F)cc([N+](=O)[O-])c3s2)CCN1N(C)C1CCC(C)(C)CC1 (stereo not drawn),< 1 ng/mL,< 1 ng/mL
CC1CCC(NN2CCN(c3nc(=O)c4cc(C(F)(F)F)cc([N+](=O)[O-])c4s3)CC2)CC1 (stereo not drawn),< 1 ng/mL,< 1 ng/mL
CC1CN(c2nc(=O)c3cc(C(F)(F)F)cc([N+](=O)[O-])c3s2)CCN1N(C)C1CCCCC1 (stereo not drawn),< 1 ng/mL,< 1 ng/mL
CC1CCCCC1N(C)N1CCN(c2nc(=O)c3cc(C(F)(F)F)cc([N+](=O)[O-])c3s2)CC1 (stereo not drawn),< 1 ng/mL,< 1 ng/mL
CN(CC1CCC(F)(F)CC1)N1CCN(c2nc(=O)c3cc(C(F)(F)F)cc([N+](=O)[O-])c3s2)CC1,< 1 ng/mL,< 1 ng/mL
NNC(=O)c1ccncc1 [ISONIAZID],> 20000 ng/mL,> 20000 ng/mL
O=c1nc(N2CCN(CC3CCCCC3)CC2)sc2c([N+](=O)[O-])cc(C(F)(F)F)cc12 [MACOZINONE],< 1 ng/mL,< 1 ng/mL
CO[C@H]1/C=C/O[C@@]2(C)Oc3c(C)c(O)c4c(O)c(c(/C=N/N5CCN(C)CC5)c(O)c4c3C2=O)NC(=O)/C(C)=C\C=C\[C@H](C)[C@H](O)[C@@H](C)[C@@H](O)[C@@H](C)[C@H](OC(C)=O)[C@@H]1C [RIFAMPIN],> 20000 ng/mL,> 20000 ng/mL
